The text below walks through data of US8362249B2, “CXCR3 receptor antagonists” (Boehringer Ingelheim International GmbH, priority 2009, dated 2013).

Each structure is given as a SMILES string.

In general, IC50 refers to the point on the concentration scale where inhibition reaches its midpoint.

The first test relates to LDL receptor knockout model.
Test: not given
To be noted: dosed prophylactically; cited from earlier work.
As for `CCOc1ccc(-n2c(C(C)N(Cc3cccnc3)C(=O)Cc3ccc(F)c(C(F)(F)F)c3)nc3ncccc3c2=O)cc1` (centres unmarked) [NBI-74330], the atherosclerotic lesion formation result is “significantly attenuated atherosclerotic lesion formation”.

The target of a further test is CXCR3 (Macaca fascicularis, UniProt A0A2K5UV19). The experiment in a line: functional cellular assay measuring calcium flux in CXCR3 transfected cells (block of CXCR3/IP-10 interaction). It counts as cell-based. To be noted: IP-10 induced intracellular calcium flux; Cyno-CHO cells stably expressing recombinant CXCR3 and G-alpha-16. A digest of the protocol: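 Cyno-CHO cells stably co-expressing recombinant CXCR3 and G-alpha-16, loaded with Ca-4 dye (HBSS, 10 mM HEPES pH 7.4, 2 mM probenecid) for 1 h at 37 °C. Compound (10 microM final) preincubated 15 min at room temperature, then IP-10 added at EC80. Intracellular calcium flux read by fluorescence (ex 480/em 540 nm).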
Chain of CXCR3 (A0A2K5UV19 entry or part of it): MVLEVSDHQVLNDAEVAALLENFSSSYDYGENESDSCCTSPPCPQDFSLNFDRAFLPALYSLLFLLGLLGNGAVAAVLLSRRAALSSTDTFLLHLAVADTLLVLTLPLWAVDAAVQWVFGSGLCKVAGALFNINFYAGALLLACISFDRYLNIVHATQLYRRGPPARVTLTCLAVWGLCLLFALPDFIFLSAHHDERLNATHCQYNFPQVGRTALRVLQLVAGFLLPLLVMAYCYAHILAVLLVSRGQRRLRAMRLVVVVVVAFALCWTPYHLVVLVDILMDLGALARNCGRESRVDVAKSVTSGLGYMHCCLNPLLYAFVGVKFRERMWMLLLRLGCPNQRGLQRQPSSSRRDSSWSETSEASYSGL
For `Cc1ccc(NC(=O)c2ccccc2N2CCN(C(=O)Cn3ccc4cccnc43)CC2)cn1` [N-(6-Methyl-pyridin-3-yl)-2-[4-(2-pyrrolo[2,3-b]pyridin-1-yl-acetyl)-piperazin-1-yl]-benzamide], the IC50 stood at 6.8 nM.
As for `Cc1cc(C)n(CC(=O)N2CCN(c3ccccc3C(=O)Nc3nc4ccccc4s3)CC2)n1` [N-Benzothiazol-2-yl-2-{4-[2-(3,5-dimethyl-pyrazol-1-yl)-acetyl]-piperazin-1-yl}-benzamide], the IC50 was determined as 5.9 nM.
Same read-out and setting: the value for `O=C(Nc1ccccc1)c1ccccc1N1CCN(C(=O)Cn2ccc3cccnc32)CC1` [N-Phenyl-2-[4-(2-pyrrolo[2,3-b]pyridin-1-yl-acetyl)-piperazin-1-yl]-benzamide] was 3.4 nM; that for `O=C(Nc1cccnc1)c1ccccc1N1CCN(C(=O)Cn2ccc3cccnc32)CC1` [N-Pyridin-3-yl-2-[4-(2-pyrrolo[2,3-b]pyridin-1-yl-acetyl)-piperazin-1-yl]-benzamide] was 4.6 nM.
Same read-out and setting: the value for `O=C(Nc1ccncc1)c1ccccc1N1CCN(C(=O)Cn2ccc3cccnc32)CC1` [N-Pyridin-4-yl-2-[4-(2-pyrrolo[2,3-b]pyridin-1-yl-acetyl)-piperazin-1-yl]-benzamide] was 4.9 nM; that for `O=C(Nc1ccncc1)c1ccccc1N1CCN(C(=O)Cc2cccc3cccnc23)CC1` [N-Pyridin-4-yl-2-[4-(2-quinolin-8-yl-acetyl)-piperazin-1-yl]-benzamide] was 14 nM.
Consider `O=C(Nc1ccncc1)c1ccccc1N1CCN(C(=O)CN2C(=O)c3ccccc3S2(=O)=O)CC1` [N-Pyridin-4-yl-2-{4-[2-(1,1,3-trioxo-1,3-dihydro-1l6-benzo[d]isothiazol-2-yl)-acetyl]-piperazin-1-yl}-benzamide], for which the IC50 was 6.6 nM.
As to `Cc1nn(C)c(C)c1CC(=O)N1CCN(c2ccccc2C(=O)Nc2ccncc2)CC1` [N-Pyridin-4-yl-2-{4-[2-(1,3,5-trimethyl-1H-pyrazol-4-yl)-acetyl]-piperazin-1-yl}-benzamide], the IC50 turned out to be 19.5 nM.
As for `Cc1cc(C)n(CC(=O)N2CCN(c3ccccc3C(=O)Nc3cc(CC(C)(C)C)no3)CC2)n1` [N-[3-(2,2-Dimethyl-propyl)-isoxazol-5-yl]-2-{4-[2-(3,5-dimethyl-pyrazol-1-yl)-acetyl]-piperazin-1-yl}-benzamide], the IC50 turned out to be 9.5 nM.
The same measure, in the same setting: as for `O=C(Nc1cc(Cl)cnc1N1CCN(C(=O)Cn2ccc3cccnc32)CC1)c1cccc(C(F)(F)F)c1` [N-{5-Chloro-2-[4-(2-pyrrolo[2,3-b]pyridin-1-yl-acetyl)-piperazin-1-yl]-pyridin-3-yl}-3-trifluoromethyl-benzamide], the figure is 8.9 nM.
